Broadly, the EC50 is the concentration that produces a half-maximal response.

From patent US12404289B2 (Gilead Sciences, Inc., priority 2020, dated 2025) come the findings set out here.

The structures appear in SMILES notation.

For the first assay, the system named is Respiratory syncytial virus (RSV) strain A2. The experiment in a line: RSV antiviral assay (HEp-2, 96 well). The note with it: human respiratory syncytial virus, HEp-2, 96 h, read-out: EC50 RSV HEP2 96, HEp-2 cells, RSV A2, MOI=4, 4 days, 96 well; Table 3. Type of assay: cell-based.
As to `COC(C)(C)COC(=O)[C@H](C)N[P@](=O)(OC[C@H]1O[C@@](C#N)(c2ccc3c(N)ncnn23)[C@H](OC(=O)CC(C)C)[C@@H]1OC(=O)CC(C)C)Oc1ccccc1` [Example 168, (2R,3R,4R,5R)-2-(4-aminopyrrolo[2,1-f][1,2,4]triazin-7-yl)-2-cyano-5-((((S)—(((S)-1-(2-methoxy-2-methylpropoxy)-1-oxopropan-2-yl)amino)(phenoxy)phosphoryl)oxy)methyl)tetrahydrofuran-3,4-diyl bis(3-methylbutanoate)], the EC50 stood at 0.111 µM.

As for `CC(C)C(=O)O[C@H]1[C@@H](OC(=O)C(C)C)[C@](C#N)(c2ccc3c(N)ncnn23)O[C@@H]1COP(=O)(N[C@@H](C)C(=O)O[C@H]1CC[C@H](C(F)(F)F)CC1)Oc1ccc(C(C)(C)C)cc1` (single isomer, unassigned) [Example 85a], the EC50 was 0.0627 µM.

As for `COC(C)(C)CCOC(=O)[C@H](C)NP(=O)(OC[C@H]1O[C@@](C#N)(c2ccc3c(N)ncnn23)[C@H](O)[C@@H]1O)Oc1ccccc1` (stereo partly drawn) [Example 75, (3-methoxy-3-methyl-butyl) (2S)-2-[[[(2R,3S,4R,5R)-5-(4-aminopyrrolo[2,1-f][1,2,4]triazin-7-yl)-5-cyano-3,4-dihydroxy-tetrahydrofuran-2-yl]methoxy-phenoxy-phosphoryl]amino]propanoate], the EC50 was 0.289 µM.

On to `CCOC(=O)O[C@H]1[C@@H](OC(=O)OCC)[C@](C#N)(c2ccc3c(N)ncnn23)O[C@@H]1COP(=O)(N[C@@H](C)C(=O)OCC)Oc1ccc(C(C)(C)C)cc1` (stereo partly drawn) [Example 124, ethyl ((((2R,3R,4R,5R)-5-(4-aminopyrrolo[2,1-f][1,2,4]triazin-7-yl)-5-cyano-3,4-bis((ethoxycarbonyl)oxy)tetrahydrofuran-2-yl)methoxy)(4-(tert-butyl)phenoxy)phosphoryl)-L-alaninate], for which the EC50 was determined as 0.0671 µM.

For the compound `CC(C)CC(=O)O[C@H]1[C@@H](OC(=O)CC(C)C)[C@](C#N)(c2ccc3c(N)ncnn23)O[C@@H]1COP(=O)(N[C@@H](C)C(=O)OC1CCC1)Oc1ccccc1` (stereo partly drawn) [Example 109, (2R,3R,4R,5R)-2-(4-aminopyrrolo[2,1-f][1,2,4]triazin-7-yl)-2-cyano-5-((((((S)-1-cyclobutoxy-1-oxopropan-2-yl)amino)(phenoxy)phosphoryl)oxy)methyl)tetrahydrofuran-3,4-diyl bis(3-methylbutanoate)], the half-maximal effective concentration (EC50) came out at 0.0435 µM.

In the case of `CCOC(=O)[C@H](C)NP(=O)(OC[C@H]1O[C@@](C#N)(c2ccc3c(N)ncnn23)[C@H](O)[C@@H]1O)Oc1ccc(C(C)C)cc1` (stereo partly drawn) [Example 63a], the EC50 came to 0.104 µM.

With `CCC(=O)O[C@H]1[C@@H](OC(=O)CC)[C@](C#N)(c2ccc3c(N)ncnn23)O[C@@H]1COP(=O)(N[C@@H](C)C(=O)OCC(CC)CC)Oc1ccc(C(C)(C)C)cc1` (stereo partly drawn) [Example 110, (2R,3R,4R,5R)-2-(4-aminopyrrolo[2,1-f][1,2,4]triazin-7-yl)-5-((((4-(tert-butyl)phenoxy)(((S)-1-(2-ethylbutoxy)-1-oxopropan-2-yl)amino)phosphoryl)oxy)methyl)-2-cyanotetrahydrofuran-3,4-diyl Dipropionate], the EC50 came out at 0.0576 µM.

Turning to `CCOCCOCCOC(=O)[C@H](C)NP(=O)(OC[C@H]1O[C@@](C#N)(c2ccc3c(N)ncnn23)[C@H](O)[C@@H]1O)Oc1ccc(C(C)(C)C)cc1` (stereo partly drawn) [Example 112, 2-(2-ethoxyethoxy)ethyl ((((2R,3S,4R,5R)-5-(4-aminopyrrolo[2,1-f][1,2,4]triazin-7-yl)-5-cyano-3,4-dihydroxytetrahydrofuran-2-yl)methoxy)(4-(tert-butyl)phenoxy)phosphoryl)-L-alaninate], the EC50 came out at 0.56 µM.

For `COC(C)(C)COC(=O)[C@H](C)NP(=O)(OC[C@H]1O[C@@](C#N)(c2ccc3c(N)ncnn23)[C@H](O)[C@@H]1O)Oc1ccc(C(C)(C)C)cc1` (stereo partly drawn) [Example 111, 2-methoxy-2-methylpropyl ((((2R,3S,4R,5R)-5-(4-aminopyrrolo[2,1-f][1,2,4]triazin-7-yl)-5-cyano-3,4-dihydroxytetrahydrofuran-2-yl)methoxy)(4-(tert-butyl)phenoxy)phosphoryl)-L-alaninate], the EC50 came to 0.846 µM.

Turning to `CCC(C)(C)CCOC(=O)[C@H](C)NP(=O)(OC[C@H]1O[C@@](C#N)(c2ccc3c(N)ncnn23)[C@H](O)[C@@H]1O)Oc1ccccc1` (stereo partly drawn) [Intermediate S4, 3,3-dimethylpentyl ((((2R,3S,4R,5R)-5-(4-aminopyrrolo[2,1-f][1,2,4]triazin-7-yl)-5-cyano-3,4-dihydroxytetrahydrofuran-2-yl)methoxy)(phenoxy)phosphoryl)-L-alaninate], the half-maximal effective concentration (EC50) was determined as 0.0149 µM.

As for `CCC(CC)COC(=O)[C@H](C)NP(=O)(OC[C@H]1O[C@@](C#N)(c2ccc3c(N)ncnn23)[C@H](OC(=O)C(C)C)[C@@H]1OC(=O)C(C)C)Oc1ccc2ccccc2c1` (stereo partly drawn) [Example 69a, [(2R,3R,4R,5R)-5-(4-aminopyrrolo[2,1-f][1,2,4]triazin-7-yl)-5-cyano-2-[[[[(1S)-2-(2-ethylbutoxy)-1-methyl-2-oxo-ethyl]amino]-(2-naphthyloxy)phosphoryl]oxymethyl]-4-(2-methylpropanoyloxy)tetrahydrofuran-3-yl] 2-methylpropanoate], the EC50 came out at 0.0221 µM.

As to `C[C@H](NP(=O)(OC[C@H]1O[C@@](C#N)(c2ccc3c(N)ncnn23)[C@H](O)[C@@H]1O)Oc1ccc(C2CC2)cc1)C(=O)OC1CCC1` (stereo partly drawn) [Example 51a, cyclobutyl (2S)-2-[[[(2R,3S,4R,5R)-5-(4-aminopyrrolo[2,1-f][1,2,4]triazin-7-yl)-5-cyano-3,4-dihydroxy-tetrahydrofuran-2-yl]methoxy-(cyclopropylphenoxy)phosphoryl]amino]propanoate], the EC50 was 0.0661 µM.

`CCC(CC)COC(=O)[C@H](C)NP(=O)(OC[C@H]1O[C@@](C#N)(c2ccc3c(N)ncnn23)[C@H](O)[C@@H]1O)Oc1ccc(C[C@H](NC(=O)OCc2ccccc2)C(=O)OCCC(C)C)cc1` (stereo partly drawn) [Example 71, isopentyl (2S)-3-[4-[[(2R,3S,4R,5R)-5-(4-aminopyrrolo[2,1-f][1,2,4]triazin-7-yl)-5-cyano-3,4-dihydroxy-tetrahydrofuran-2-yl]methoxy-[[(1S)-2-(2-ethylbutoxy)-1-methyl-2-oxo-ethyl]amino]phosphoryl]oxyphenyl]-2-(benzyloxycarbonylamino)propanoate]: the EC50 worked out at 1.79 µM.

In the case of `COC(C)(C)CCOC(=O)[C@H](C)NP(=O)(OC[C@H]1O[C@@](C#N)(c2ccc3c(N)ncnn23)[C@H](OC(=O)C(C)C)[C@@H]1OC(=O)C(C)C)Oc1ccccc1` (stereo partly drawn) [Example 76, [(2R,3R,4R,5R)-5-(4-aminopyrrolo[2,1-f][1,2,4]triazin-7-yl)-5-cyano-2-[[[[(1S)-2-(3-methoxy-3-methyl-butoxy)-1-methyl-2-oxo-ethyl]amino]-phenoxy-phosphoryl]oxymethyl]-4-(2-methylpropanoyloxy)tetrahydrofuran-3-yl] 2-methylpropanoate], the EC50 was found to be 0.0292 µM.

Staying with this assay, now noted: read-out: EC50 RSV HEP2 96; HEp-2 cells, RSV A2, MOI=4, 4 days, 96 well; Table 3.
Consider `CC(C)C(=O)O[C@H]1[C@@H](OC(=O)C(C)C)[C@](C#N)(c2ccc3c(N)ncnn23)O[C@@H]1COP(=O)(N[C@@H](C)C(=O)OC1CCCCCCC1)Oc1ccc(C(C)(C)C)cc1` (single isomer, unassigned) [Example 77b], for which the 50% effective concentration (EC50) is 0.198 µM.

In the case of `C[C@H](NP(=O)(OC[C@H]1O[C@@](C#N)(c2ccc3c(N)ncnn23)[C@H](O)[C@@H]1O)Oc1cccc2ccccc12)C(=O)OC1CCC1` (single isomer, unassigned) [Intermediate P7a-1], the EC50 was found to be 0.224 µM.

`CC(C)C(=O)O[C@H]1[C@@H](OC(=O)C(C)C)[C@](C#N)(c2ccc3c(N)ncnn23)O[C@@H]1COP(=O)(N[C@@H](C)C(=O)O[C@H]1CC[C@H](C(F)(F)F)CC1)Oc1ccc(C(C)(C)C)cc1` (single isomer, unassigned) [Example 85b]: the EC50 was determined as 0.0805 µM.

For `CC(C)C(=O)O[C@H]1[C@@H](OC(=O)C(C)C)[C@](C#N)(c2ccc3c(N)ncnn23)O[C@@H]1COP(=O)(N[C@@H](C)C(=O)OCCC(C)(C)C)Oc1ccccc1` (single isomer, unassigned) [Example 56b], the EC50 worked out at 0.0747 µM.

`CCC(CC)COC(=O)[C@H](C)NP(=O)(OC[C@H]1O[C@@](C#N)(c2ccc3c(N)ncnn23)[C@H](O)[C@@H]1O)Oc1cccc(C(C)(C)C)c1` (stereo partly drawn) [Example 68b]: the EC50 amounted to 0.0344 µM.

On to `CCOC(=O)[C@H](C)NP(=O)(OC[C@H]1O[C@@](C#N)(c2ccc3c(N)ncnn23)[C@H](O)[C@@H]1O)Oc1ccc(C(C)C)cc1` (stereo partly drawn) [Example 63b], for which the EC50 was 0.0986 µM.

For `C[C@H](NP(=O)(OC[C@H]1O[C@@](C#N)(c2ccc3c(N)ncnn23)[C@H](O)[C@@H]1O)Oc1ccc(C2CC2)cc1)C(=O)OC1CCC1` (stereo partly drawn) [Example 51b, cyclobutyl (2S)-2-[[[(2R,3S,4R,5R)-5-(4-aminopyrrolo[2,1-f][1,2,4]triazin-7-yl)-5-cyano-3,4-dihydroxy-tetrahydrofuran-2-yl]methoxy-(cyclopropylphenoxy)phosphoryl]amino]propanoate], the EC50 was 0.0868 µM.

On to `CC(C)C(=O)O[C@H]1[C@@H](OC(=O)C(C)C)[C@](C#N)(c2ccc3c(N)ncnn23)O[C@@H]1COP(=O)(N[C@@H](C)C(=O)OC1CCC1)Oc1ccc(C2CC2)cc1` (stereo partly drawn) [Example 52b], for which the EC50 was determined as 0.0254 µM.

Turning to `C[C@H](NP(=O)(OC[C@H]1O[C@@](C#N)(c2ccc3c(N)ncnn23)[C@H](O)[C@@H]1O)Oc1ccc(C(C)(C)C)cc1)C(=O)O[C@H]1CC[C@H](C(F)(F)F)CC1` (single isomer, unassigned) [Example 84b], the EC50 was 0.186 µM.

On to `CCC(CC)COC(=O)[C@H](C)NP(=O)(OC[C@H]1O[C@@](C#N)(c2ccc3c(N)ncnn23)[C@H](OC(=O)C(C)C)[C@@H]1OC(=O)C(C)C)Oc1ccc2ccccc2c1` (stereo partly drawn) [Example 69b, [(2R,3R,4R,5R)-5-(4-aminopyrrolo[2,1-f][1,2,4]triazin-7-yl)-5-cyano-2-[[[[(1S)-2-(2-ethylbutoxy)-1-methyl-2-oxo-ethyl]amino]-(2-naphthyloxy)phosphoryl]oxymethyl]-4-(2-methylpropanoyloxy)tetrahydrofuran-3-yl] 2-methylpropanoate], for which the EC50 is 0.0369 µM.
